Measurements taken from patent publication US20190330224A1, “ACC INHIBITORS AND USES THEREOF” (Gilead Apollo, LLC, priority 2015, published 2019).
Values after ≈ are worked out from the molar mass of the structure shown.

Key:
Human ACC2 = Human ACC2 (Homo sapiens, UniProt O00763); experiment: In vitro ACC2 inhibition assay (ADP-Glo), human ACC2; format: biochemical; settings: 5 nM ACC2, 20 μM ATP, 20 μM acetyl-CoA
C. albicans ATCC 90028 = experiment: Anti-Fungal Activity Assay (broth microtiter MIC), C. albicans; format: cell-based, Candida albicans; settings: Candida albicans, ATCC90028, 48 h, 3 replicates; MIC recorded at 48 h; read-out: MIC C. albicans ATCC 90028
In short: (§1)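 Susceptibility testing used direct colony suspensions in RPMI 1640+MOPS from Sabouraud dextrose agar grown at 35° C. Endpoints were visual MICs at 48 h under CLSI M27-A3 microtiter conditions, plus a 24 h reading for soraphen.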

C. krusei ATCC 6258 = experiment: Anti-Fungal Activity Assay (broth microtiter MIC), C. krusei; format: cell-based, Candida krusei; settings: Pichia kudriavzevii, ATCC6258, 48 h, 3 replicates; MIC recorded at 48 h; read-out: MIC C. krusei ATCC 6258
In short: as §1

[1] = tested on: C. parapsilosis ATCC 22019; experiment: Anti-Fungal Activity Assay (broth microtiter MIC), C. parapsilosis; format: cell-based, Candida parapsilosis; settings: Lodderomyces parapsilosis, ATCC22019, 48 h, 3 replicates; MIC recorded at 48 h; read-out: MIC C. parapsilosis ATCC 22019
In short: as §1

Fungal ACC2 = Fungal ACC2 (UniProt Q00955); settings: read-out: Fungal ACC2 (IC50, in vitro ACC2 inhibition)
Sequence of Fungal ACC2 (Q00955 whole entry): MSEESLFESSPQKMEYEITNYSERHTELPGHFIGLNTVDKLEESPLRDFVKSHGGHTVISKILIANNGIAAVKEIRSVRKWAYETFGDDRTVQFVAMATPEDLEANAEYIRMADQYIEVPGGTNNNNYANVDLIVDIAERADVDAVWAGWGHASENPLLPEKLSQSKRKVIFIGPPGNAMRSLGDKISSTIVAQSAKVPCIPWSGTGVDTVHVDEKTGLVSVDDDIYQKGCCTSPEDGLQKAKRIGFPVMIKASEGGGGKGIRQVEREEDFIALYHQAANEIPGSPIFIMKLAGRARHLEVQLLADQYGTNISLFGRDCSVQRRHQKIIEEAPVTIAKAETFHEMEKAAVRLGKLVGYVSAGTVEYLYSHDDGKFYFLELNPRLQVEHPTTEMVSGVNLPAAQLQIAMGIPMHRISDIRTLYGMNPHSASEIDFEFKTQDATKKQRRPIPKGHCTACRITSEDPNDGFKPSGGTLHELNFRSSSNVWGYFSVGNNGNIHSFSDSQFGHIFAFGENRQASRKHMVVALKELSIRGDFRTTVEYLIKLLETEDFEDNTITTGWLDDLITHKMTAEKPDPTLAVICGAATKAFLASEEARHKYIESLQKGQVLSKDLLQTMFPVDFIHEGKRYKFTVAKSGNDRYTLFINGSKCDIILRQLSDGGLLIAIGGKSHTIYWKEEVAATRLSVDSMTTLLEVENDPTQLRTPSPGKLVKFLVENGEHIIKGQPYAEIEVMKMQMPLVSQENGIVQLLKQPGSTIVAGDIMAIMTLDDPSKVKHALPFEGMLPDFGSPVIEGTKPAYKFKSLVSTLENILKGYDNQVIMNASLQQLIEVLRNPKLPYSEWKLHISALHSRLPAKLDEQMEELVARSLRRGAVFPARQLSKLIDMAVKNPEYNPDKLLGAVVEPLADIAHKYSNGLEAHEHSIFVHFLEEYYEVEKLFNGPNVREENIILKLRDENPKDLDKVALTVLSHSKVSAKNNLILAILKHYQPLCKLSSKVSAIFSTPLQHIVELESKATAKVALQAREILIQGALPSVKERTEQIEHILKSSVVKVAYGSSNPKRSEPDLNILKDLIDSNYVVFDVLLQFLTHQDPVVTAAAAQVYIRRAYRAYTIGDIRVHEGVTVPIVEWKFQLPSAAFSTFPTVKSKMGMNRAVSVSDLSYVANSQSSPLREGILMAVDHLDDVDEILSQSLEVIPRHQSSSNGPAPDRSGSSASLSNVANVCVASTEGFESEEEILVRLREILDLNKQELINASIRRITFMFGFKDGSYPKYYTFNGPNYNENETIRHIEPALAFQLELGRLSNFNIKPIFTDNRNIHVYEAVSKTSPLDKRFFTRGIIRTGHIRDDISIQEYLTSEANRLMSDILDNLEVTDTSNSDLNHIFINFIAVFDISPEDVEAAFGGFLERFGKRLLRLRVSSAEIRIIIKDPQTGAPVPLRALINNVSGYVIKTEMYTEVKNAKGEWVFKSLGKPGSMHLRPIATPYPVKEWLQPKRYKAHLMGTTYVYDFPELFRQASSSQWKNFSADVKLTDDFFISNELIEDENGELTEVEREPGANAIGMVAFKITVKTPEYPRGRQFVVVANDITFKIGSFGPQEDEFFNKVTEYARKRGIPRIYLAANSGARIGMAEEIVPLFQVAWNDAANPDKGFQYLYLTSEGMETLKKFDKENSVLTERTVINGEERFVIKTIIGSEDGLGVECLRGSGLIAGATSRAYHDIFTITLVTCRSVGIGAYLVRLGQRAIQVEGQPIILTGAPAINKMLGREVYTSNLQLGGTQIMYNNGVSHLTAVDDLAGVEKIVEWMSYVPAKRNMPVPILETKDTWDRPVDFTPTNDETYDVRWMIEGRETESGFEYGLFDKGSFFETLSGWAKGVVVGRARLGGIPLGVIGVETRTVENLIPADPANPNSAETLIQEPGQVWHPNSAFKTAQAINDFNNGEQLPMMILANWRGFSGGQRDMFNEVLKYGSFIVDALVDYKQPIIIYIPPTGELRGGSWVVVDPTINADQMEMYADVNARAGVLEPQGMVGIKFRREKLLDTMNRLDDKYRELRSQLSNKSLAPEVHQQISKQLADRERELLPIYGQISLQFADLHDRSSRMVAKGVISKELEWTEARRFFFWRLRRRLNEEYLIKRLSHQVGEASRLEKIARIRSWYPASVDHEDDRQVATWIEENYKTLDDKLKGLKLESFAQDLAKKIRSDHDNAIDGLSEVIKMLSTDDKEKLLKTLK

Sequence of Human ACC2 (O00763 whole entry): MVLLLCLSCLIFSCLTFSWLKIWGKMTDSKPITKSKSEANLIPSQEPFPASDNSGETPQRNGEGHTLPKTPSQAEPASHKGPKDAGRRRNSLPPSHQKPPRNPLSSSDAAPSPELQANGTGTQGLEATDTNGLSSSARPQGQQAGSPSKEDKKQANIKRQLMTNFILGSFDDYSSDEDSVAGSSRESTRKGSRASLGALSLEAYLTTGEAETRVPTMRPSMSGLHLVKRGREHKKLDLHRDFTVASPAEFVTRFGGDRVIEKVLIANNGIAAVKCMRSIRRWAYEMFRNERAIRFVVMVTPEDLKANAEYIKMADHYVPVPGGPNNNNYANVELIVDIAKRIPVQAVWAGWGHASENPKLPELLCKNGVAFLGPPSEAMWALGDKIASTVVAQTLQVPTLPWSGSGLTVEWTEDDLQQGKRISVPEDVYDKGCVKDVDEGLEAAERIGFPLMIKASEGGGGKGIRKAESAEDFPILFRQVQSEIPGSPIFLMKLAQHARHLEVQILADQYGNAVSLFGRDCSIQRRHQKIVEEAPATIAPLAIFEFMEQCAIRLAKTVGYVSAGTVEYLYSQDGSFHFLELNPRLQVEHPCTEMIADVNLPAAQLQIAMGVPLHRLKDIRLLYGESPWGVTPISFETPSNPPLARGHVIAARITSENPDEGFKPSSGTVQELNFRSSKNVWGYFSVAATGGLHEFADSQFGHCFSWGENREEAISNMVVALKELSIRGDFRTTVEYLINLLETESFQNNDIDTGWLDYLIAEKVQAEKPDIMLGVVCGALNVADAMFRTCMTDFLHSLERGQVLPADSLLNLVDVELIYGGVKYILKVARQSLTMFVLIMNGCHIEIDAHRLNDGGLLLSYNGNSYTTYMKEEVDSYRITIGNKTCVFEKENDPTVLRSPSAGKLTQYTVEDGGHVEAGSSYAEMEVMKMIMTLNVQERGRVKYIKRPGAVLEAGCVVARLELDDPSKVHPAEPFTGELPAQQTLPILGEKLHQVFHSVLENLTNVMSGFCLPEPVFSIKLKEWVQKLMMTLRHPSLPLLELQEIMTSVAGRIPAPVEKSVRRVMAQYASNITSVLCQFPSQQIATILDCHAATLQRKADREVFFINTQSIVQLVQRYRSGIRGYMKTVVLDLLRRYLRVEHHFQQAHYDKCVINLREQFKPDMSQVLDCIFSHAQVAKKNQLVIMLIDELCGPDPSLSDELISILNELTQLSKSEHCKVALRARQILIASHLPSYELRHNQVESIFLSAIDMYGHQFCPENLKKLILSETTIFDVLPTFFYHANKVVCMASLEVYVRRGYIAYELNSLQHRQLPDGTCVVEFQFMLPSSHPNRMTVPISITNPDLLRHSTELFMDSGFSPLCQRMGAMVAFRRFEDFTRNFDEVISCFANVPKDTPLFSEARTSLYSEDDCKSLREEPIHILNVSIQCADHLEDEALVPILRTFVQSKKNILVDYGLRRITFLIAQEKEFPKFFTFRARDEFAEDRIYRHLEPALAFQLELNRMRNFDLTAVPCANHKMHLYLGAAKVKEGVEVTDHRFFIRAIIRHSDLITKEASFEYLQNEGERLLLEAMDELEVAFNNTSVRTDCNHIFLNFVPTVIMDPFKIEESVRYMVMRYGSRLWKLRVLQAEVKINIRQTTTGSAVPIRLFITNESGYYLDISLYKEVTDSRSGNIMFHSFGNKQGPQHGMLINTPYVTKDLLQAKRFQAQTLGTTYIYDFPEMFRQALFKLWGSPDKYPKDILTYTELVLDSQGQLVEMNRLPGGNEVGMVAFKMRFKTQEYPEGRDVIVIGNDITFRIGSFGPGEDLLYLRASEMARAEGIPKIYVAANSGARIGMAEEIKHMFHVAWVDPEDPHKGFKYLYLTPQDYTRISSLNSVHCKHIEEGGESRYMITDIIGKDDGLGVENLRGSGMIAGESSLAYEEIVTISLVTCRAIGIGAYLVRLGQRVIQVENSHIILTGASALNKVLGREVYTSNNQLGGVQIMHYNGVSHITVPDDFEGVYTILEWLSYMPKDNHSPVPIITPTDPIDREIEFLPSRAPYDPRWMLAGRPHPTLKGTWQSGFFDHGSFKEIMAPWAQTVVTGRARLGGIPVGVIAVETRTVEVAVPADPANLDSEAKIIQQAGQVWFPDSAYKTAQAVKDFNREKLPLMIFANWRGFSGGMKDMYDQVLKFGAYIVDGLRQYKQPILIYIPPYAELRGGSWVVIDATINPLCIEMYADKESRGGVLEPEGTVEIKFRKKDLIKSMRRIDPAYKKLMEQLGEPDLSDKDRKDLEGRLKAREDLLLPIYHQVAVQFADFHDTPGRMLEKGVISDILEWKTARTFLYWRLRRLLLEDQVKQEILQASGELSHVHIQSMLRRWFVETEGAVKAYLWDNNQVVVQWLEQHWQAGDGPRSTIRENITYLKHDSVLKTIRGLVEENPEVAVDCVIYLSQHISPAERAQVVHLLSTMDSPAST

With `COCCO[C@@H](Cn1c(=O)n([C@@]2(C)CCCN(C)C2=O)c(=O)c2c(C)c(-n3nccn3)sc21)c1cc(F)ccc1OC` [Compound I-130, 3-((S)-1,3-dimethyl-2-oxopiperidin-3-yl)-1-((R)-2-(5-fluoro-2-methoxyphenyl)-2-(2-methoxyethoxy)ethyl)-5-methyl-6-(2H-1,2,3-triazol-2-yl)thieno[2,3-d]pyrimidine-2,4(1H,3H)-dione] as the compound, how does the IC50 (Human ACC2) read?
The IC50 was 100 to 1000 nM.

What about the MIC (C. albicans ATCC 90028) of the same compound?
Its MIC is 2.1 to 4 µg/mL (≈ 3.5 to 6.66 µM).

What about the MIC (C. krusei ATCC 6258) of the same compound?
The MIC was 2.1 to 4 µg/mL (≈ 3.5 to 6.66 µM).

And the MIC [1]?
Its MIC is 2.1 to 4 µg/mL (≈ 3.5 to 6.66 µM).

What about the IC50 (Fungal ACC2) of the same compound?
Its IC50 is 2 to 10 nM.

What does the source list for `COc1ccc(F)cc1[C@H](Cn1c(=O)n([C@@]2(C)CCCN(C)C2=O)c(=O)c2c(C)c(-n3nccn3)sc21)OCCO` [Compound I-131, 3-((S)-1,3-dimethyl-2-oxopiperidin-3-yl)-1-((R)-2-(5-fluoro-2-methoxyphenyl)-2-(2-hydroxyethoxy)ethyl)-5-methyl-6-(2H-1,2,3-triazol-2-yl)thieno[2,3-d]pyrimidine-2,4(1H,3H)-dione]?
IC50 (Human ACC2): 10 to 100 nM; MIC (C. albicans ATCC 90028): 2.1 to 4 µg/mL (≈ 3.58 to 6.82 µM); MIC (C. krusei ATCC 6258): 2.1 to 4 µg/mL (≈ 3.58 to 6.82 µM); MIC [1]: 2.1 to 4 µg/mL (≈ 3.58 to 6.82 µM); IC50 (Fungal ACC2): 0.7 to 2 nM

What does the source list for `COCCO[C@@H](Cn1c(=O)n([C@]2(C)CCC(=O)NC2)c(=O)c2c(C)c(-n3nccn3)sc21)c1cc(F)ccc1OC` [Compound I-132, 1-((R)-2-(5-fluoro-2-methoxyphenyl)-2-(2-methoxy-ethoxy)ethyl)-5-methyl-3-((R)-3-methyl-6-oxopiperidin-3-yl)-6-(2H-1,2,3-triazol-2-yl)thieno[2,3-d]pyrimidine-2,4(1H,3H)-dione]?
IC50 (Human ACC2): 10 to 100 nM; MIC (C. albicans ATCC 90028): 2.1 to 4 µg/mL (≈ 3.58 to 6.82 µM); MIC (C. krusei ATCC 6258): 2.1 to 4 µg/mL (≈ 3.58 to 6.82 µM); MIC [1]: 2.1 to 4 µg/mL (≈ 3.58 to 6.82 µM); IC50 (Fungal ACC2): 0.7 to 2 nM

For `COCCO[C@@H](Cn1c(=O)n([C@@]2(C)CCC(=O)NC2)c(=O)c2c(C)c(-n3nccn3)sc21)c1cc(F)ccc1OC` [Compound I-134, 1-((R)-2-(5-fluoro-2-methoxyphenyl)-2-(2-methoxy-ethoxy)ethyl)-5-methyl-3-((S)-3-methyl-6-oxopiperidin-3-yl)-6-(2H-1,2,3-triazol-2-yl)thieno[2,3-d]pyrimidine-2,4(1H,3H)-dione], which IC50 (Human ACC2) is on record?
The IC50 was 100 to 1000 nM.

And the MIC (C. albicans ATCC 90028)?
Its MIC is 2.1 to 4 µg/mL (≈ 3.58 to 6.82 µM).

And the MIC (C. krusei ATCC 6258)?
Its MIC is 2.1 to 4 µg/mL (≈ 3.58 to 6.82 µM).

And the MIC [1]?
Its MIC is 2.1 to 4 µg/mL (≈ 3.58 to 6.82 µM).

And the IC50 (Fungal ACC2)?
Its IC50 is 2 to 10 nM.

What does the source list for `COCCO[C@@H](Cn1c(=O)n([C@]2(C)CCC(=O)N(C)C2)c(=O)c2c(C)c(-n3nccn3)sc21)c1cc(F)ccc1OC` [Compound I-136, 3-((R)-1,3-dimethyl-6-oxopiperidin-3-yl)-1-((R)-2-(5-fluoro-2-methoxyphenyl)-2-(2-methoxyethoxy)ethyl)-5-methyl-6-(2H-1,2,3-triazol-2-yl)thieno[2,3-d]pyrimidine-2,4(1H,3H)-dione]?
IC50 (Human ACC2): 10 to 100 nM; MIC (C. albicans ATCC 90028): 2.1 to 4 µg/mL (≈ 3.5 to 6.66 µM); MIC (C. krusei ATCC 6258): 2.1 to 4 µg/mL (≈ 3.5 to 6.66 µM); MIC [1]: 2.1 to 4 µg/mL (≈ 3.5 to 6.66 µM); IC50 (Fungal ACC2): 0.7 to 2 nM

Which results are given for `COCCO[C@@H](Cn1c(=O)n([C@@]2(C)CCC(=O)N(C)C2)c(=O)c2c(C)c(-n3nccn3)sc21)c1cc(F)ccc1OC` [Compound I-137, 3-((S)-1,3-dimethyl-6-oxopiperidin-3-yl)-1-((R)-2-(5-fluoro-2-methoxyphenyl)-2-(2-methoxyethoxy)ethyl)-5-methyl-6-(2H-1,2,3-triazol-2-yl)thieno[2,3-d]pyrimidine-2,4(1H,3H)-dione]?
IC50 (Human ACC2): 10 to 100 nM; MIC (C. albicans ATCC 90028): 2.1 to 4 µg/mL (≈ 3.5 to 6.66 µM); MIC (C. krusei ATCC 6258): 2.1 to 4 µg/mL (≈ 3.5 to 6.66 µM); MIC [1]: 2.1 to 4 µg/mL (≈ 3.5 to 6.66 µM); IC50 (Fungal ACC2): 2 to 10 nM

`COc1ccc(F)cc1[C@H](Cn1c(=O)n([C@]2(C)CCC(=O)N(C)C2)c(=O)c2c(C)c(-n3nccn3)sc21)OCCO` [Compound I-142] was tested. Which IC50 (Human ACC2) did it give?
The IC50 was 2 to 10 nM.

What about the MIC (C. albicans ATCC 90028) of the same compound?
The MIC was 2.1 to 4 µg/mL (≈ 3.58 to 6.82 µM).

What about the MIC (C. krusei ATCC 6258) of the same compound?
Its MIC is 2.1 to 4 µg/mL (≈ 3.58 to 6.82 µM).

What about the MIC [1] of the same compound?
The MIC was 2.1 to 4 µg/mL (≈ 3.58 to 6.82 µM).

What about the IC50 (Fungal ACC2) of the same compound?
The IC50 was 0.7 to 2 nM.

`COc1ccc(F)cc1[C@H](Cn1c(=O)n([C@@]2(C)CCC(=O)N(C)C2)c(=O)c2c(C)c(-n3nccn3)sc21)OCCO` [Compound I-143, 3-((S)-1,3-dimethyl-6-oxopiperidin-3-yl)-1-((R)-2-(5-fluoro-2-methoxyphenyl)-2-(2-hydroxyethoxy)ethyl)-5-methyl-6-(2H-1,2,3-triazol-2-yl)thieno[2,3-d]pyrimidine-2,4(1H,3H)-dione] was tested. Which IC50 (Human ACC2) did it give?
The IC50 was 2 to 10 nM.

And the MIC (C. albicans ATCC 90028)?
Its MIC is 2.1 to 4 µg/mL (≈ 3.58 to 6.82 µM).

What about the MIC (C. krusei ATCC 6258) of the same compound?
The MIC was 2.1 to 4 µg/mL (≈ 3.58 to 6.82 µM).

And the MIC [1]?
The MIC was 2.1 to 4 µg/mL (≈ 3.58 to 6.82 µM).

And the IC50 (Fungal ACC2)?
Its IC50 is 0.7 to 2 nM.
